Experimental data: US6465221B1, “Method of producing a taxane-type diterpene” (Mitsui Chemicals, Inc., priority 1994, dated 2002)

Tests used:
[1] = system: cultured cells of Taxus baccata LINN; assay: Taxus baccata cell culture with cyclic polysaccharides and methyl ester of jasmonic acid; type: cell-based
Description: […] After completing the culture, cultured cells of Taxus baccata LINN were harvested by filtration and lyophilized, then the dry weight was measured to obtain the yeild thereof per liter of the liquid medium.

[2] = system: cultured cells of Taxus baccata LINN; assay: Taxus baccata cell culture with cyclic polysaccharides; type: cell-based
Description: (§1) A part of stem of Taxus baccata LINN which had been previously sterilized with 2% antiformin solution or 70% ethanol solution or the like, was placed on solid Woody Plant Medium (containing gelan gum of 0.25% by weight) to which naphthalenacetic acid had been added to give the concentration of 10^−5 M, and static culture was carried out at 25° C. in a dark place to provide callus of Taxus baccata LINN. 0.1 g (fresh weight) of the callus was inoculated to a well having an inner diameter of 18 mm, containing 1 ml of liquid Woody Plant Medium to which the above-mentioned component was added to give the same concentration and shake culture was carried out with a rotary shaker (amplification of 25 mm, 120 rpm) and the callus was subcultured in every 28 days to accelerate the growth rate thereof.
One gram (fresh weight) of the cultured cells thus obtained was inoculated to an Erlenmeyer flask containing 20 ml of liquid Woody Plant Medium to which the above-mentioned component was added to give the same concentration, and shake culture was carried out at 25° C. for 14 days. […]
After completing the culture, cultured cells of Taxus baccata LINN were harvested by filtration and lyophilized, then the dry weight was measured to obtain the yeild thereof per liter of the liquid medium.

[3] = system: cultured cells of Taxus media; settings: α-linolenic acid, concentration not given, 14 days
Description: Two grams (fresh weight) of the cultured cells thus obtained by liquid culture was inoculated to 20 ml of liquid Woody Plant Medium (contained in an Erlenmeyer flask of 100 ml) to which α-linolenic acid of 0.01-1000 μM (dissolved in ethanol) was added, and shake culture was carried out at 25° C. in a dark place with a rotary shaker (amplification of 25 mm, 100 rpm).
After completing the culture for 14 days, cultured cells were harvested by filtration and lyophilized, then the dry weight was measured to obtain the yield thereof. Taxane-type diterpenes were extracted from the dried callus and the culture medium with methanol or the like, and they were determined by comparing with standard taxol using high performance liquid chromatography to measure the yield of taxol.

[4] = system: cultured cells of Taxus baccata LINN; assay: Taxus baccata cell culture with fatty acids or natural oil; type: cell-based; settings: 14 days
Description: One gram (fresh weight) of the callus was inoculated to an Erlenmeyer flask containing 20 ml of liquid Woody Plant Medium and shake culture was carried out with a rotary shaker (amplification of 25 mm, 100 rpm) and the callus was subcultured in every 21 days to accelerate the growth rate thereof.

[5] = system: cultured cells of Taxus baccata LINN; assay: Taxus baccata cell culture with coronatines; type: cell-based
Description: as §1, with “at 25 °” for “at 25°”, “LINN. One gram” for “LINN. 0.1 g”, “to” for “to a well having”, “an Erlenmeyer flask” for “an inner diameter of 18 mm,”, “containing 20” for “containing 1”, “every 21” for “every 28”
(§2) One gram (fresh weight) of the cultured cells thus obtained was inoculated to an Erlenmeyer flask containing 20 ml of liquid Woody Plant Medium to which the above-mentioned component was added to give the same concentration, and shake culture was carried out at 25° C. for 14 days. On the 14th day after starting the culture, 50 μl of coronatine [formula (IV)] was added as coronatines to the culture medium to give the final concentration of 0.001-1000 μM and the culture was further carried out for another 7 days.
(§3) After completing the culture, cultured cells of Taxus baccata LINN were harvested by filtration and lyophilized, then the dry weight was measured to obtain the yeild of the cultured cells per liter of the liquid medium.

[6] = system: cultured cells of Taxus media; assay: Taxus media cell culture with coronatine; type: cell-based; settings: concentration of coronatines 1 μM
Description: as §2, §3
Example 7 was repeated except that cultured cells of Taxus media, which was obtained in the process analogous to that of said example were used and coronatine was added as coronatines to give the final concentration of 1 μM.

[7] = β-cyclodextrin 0.01 mM + methyl ester of jasmonic acid 100 μM
[8] = β-cyclodextrin 0.1 mM + methyl ester of jasmonic acid 100 μM
[9] = β-cyclodextrin 1 mM + methyl ester of jasmonic acid 100 μM
[10] = β-cyclodextrin 10 mM + methyl ester of jasmonic acid 100 μM
[11] = concentration of β-cyclodextrin 0.01 mM
[12] = concentration of β-cyclodextrin 0.1 mM
[13] = concentration of β-cyclodextrin 1 mM
[14] = concentration of β-cyclodextrin 10 mM
[15] = concentration of α-linolenic acid 0.01 μM
[16] = concentration of α-linolenic acid 0.1 μM
[17] = concentration of α-linolenic acid 1 μM
[18] = concentration of α-linolenic acid 10 μM
[19] = concentration of α-linolenic acid 100 μM
[20] = concentration of α-linolenic acid 500 μM
[21] = concentration of α-linolenic acid 1000 μM
[22] = 6-O-α-D-glucosyl-β-cyclodextrin 50 mM + methyl ester of jasmonic acid 100 μM
[23] = 50 mM, 6-O-α-D-glucosyl-β-cyclodextrin was used
[24] = concentration of coronatines 0.001 μM
[25] = concentration of coronatines 0.01 μM
[26] = concentration of coronatines 0.1 μM
[27] = concentration of coronatines 1 μM
[28] = concentration of coronatines 10 μM
[29] = concentration of coronatines 100 μM
[30] = concentration of coronatines 1000 μM

With `OC[C@H]1O[C@@H]2O[C@H]3[C@H](O)[C@@H](O)[C@@H](O[C@H]4[C@H](O)[C@@H](O)[C@@H](O[C@H]5[C@H](O)[C@@H](O)[C@@H](O[C@H]6[C@H](O)[C@@H](O)[C@@H](O[C@H]7[C@H](O)[C@@H](O)[C@@H](O[C@H]8[C@H](O)[C@@H](O)[C@@H](O[C@H]1[C@H](O)[C@H]2O)O[C@@H]8CO)O[C@@H]7CO)O[C@@H]6CO)O[C@@H]5CO)O[C@@H]4CO)O[C@@H]3CO` [Example 13, β-cyclodextrin] the “yield of baccatin III” value [1, 7] was 54.6 mg/L, the yield of cephalomannine [1, 7] was 8.0 mg/L and the “yield of cultured cells” value [1, 7] was 15.6 g/L. The yield of taxol [1, 7] was 28.5 mg/L, the “yield of baccatin III” value [1, 8] was 62.6 mg/L and the yield of cephalomannine [1, 8] was 9.6 mg/L. For the same compound, the “yield of cultured cells” value [1, 8] was 16.3 g/L, the yield of taxol [1, 8] was 35.4 mg/L and the “yield of baccatin III” value [1, 9] was 76.0 mg/L. The yield of cephalomannine [1, 9] was 10.1 mg/L, the “yield of cultured cells” value [1, 9] was 15.4 g/L and the yield of taxol [1, 9] was 42.3 mg/L. The “yield of baccatin III” value [1, 10] was 54.2 mg/L, the yield of cephalomannine [1, 10] was 12.5 mg/L and the “yield of cultured cells” value [1, 10] was 17.3 g/L. For the same compound, the yield of taxol [1, 10] was 64.4 mg/L, the “yeild of cultured cells” value [2, 11] was 19.0 g/L and the “yield of baccatin III” value [2, 11] was 2.5 mg/L. For the same compound, the yield of cephalomannine [2, 11] was 0.7 mg/L, the yield of taxol [2, 11] was 4.0 mg/L and the “yeild of cultured cells” value [2, 12] was 19.1 g/L. For the same compound, the “yield of baccatin III” value [2, 12] was 3.0 mg/L, the yield of cephalomannine [2, 12] was 2.6 mg/L and the yield of taxol [2, 12] was 4.2 mg/L. For the same compound, the “yeild of cultured cells” value [2, 13] was 20.1 g/L, the “yield of baccatin III” value [2, 13] was 4.2 mg/L and the yield of cephalomannine [2, 13] was 3.0 mg/L. The yield of taxol [2, 13] was 6.5 mg/L, the “yeild of cultured cells” value [2, 14] was 20.1 g/L and the “yield of baccatin III” value [2, 14] was 5.0 mg/L. The yield of cephalomannine [2, 14] was 2.2 mg/L and the yield of taxol [2, 14] was 10.5 mg/L.

With `CC/C=C\C/C=C\C/C=C\CCCCCCCC(=O)O` [Example 26, α-linolenic acid] the yield of cells [3] was 20 g/L, the “yield of taxane-type diterpenes, baccatin III” value [3] was 10 mg/L and the “yield of taxane-type diterpenes, cephalomannine” value [3] was 2 mg/L. For the same compound, the “yield of taxane-type diterpenes, taxol” value [3] was 22 mg/L, the yield of cells [4, 15] was 20 g/L and the “yield of taxane-type diterpenes, baccatin III” value [4, 15] was 2 mg/L. The “yield of taxane-type diterpenes, cephalomannine” value [4, 15] was 2 mg/L, the “yield of taxane-type diterpenes, taxol” value [4, 15] was 5 mg/L and the yield of cells [4, 16] was 20 g/L. For the same compound, the “yield of taxane-type diterpenes, baccatin III” value [4, 16] was 2 mg/L, the “yield of taxane-type diterpenes, cephalomannine” value [4, 16] was 2 mg/L and the “yield of taxane-type diterpenes, taxol” value [4, 16] was 6 mg/L. The yield of cells [4, 17] was 20 g/L, the “yield of taxane-type diterpenes, baccatin III” value [4, 17] was 2 mg/L and the “yield of taxane-type diterpenes, cephalomannine” value [4, 17] was 2 mg/L. For the same compound, the “yield of taxane-type diterpenes, taxol” value [4, 17] was 6 mg/L, the yield of cells [4, 18] was 20 g/L and the “yield of taxane-type diterpenes, baccatin III” value [4, 18] was 3 mg/L. The “yield of taxane-type diterpenes, cephalomannine” value [4, 18] was 4 mg/L, the “yield of taxane-type diterpenes, taxol” value [4, 18] was 8 mg/L and the yield of cells [4, 19] was 19 g/L. For the same compound, the “yield of taxane-type diterpenes, baccatin III” value [4, 19] was 6 mg/L, the “yield of taxane-type diterpenes, cephalomannine” value [4, 19] was 4 mg/L and the “yield of taxane-type diterpenes, taxol” value [4, 19] was 19 mg/L. For the same compound, the yield of cells [4, 20] was 14 g/L, the “yield of taxane-type diterpenes, baccatin III” value [4, 20] was 4 mg/L and the “yield of taxane-type diterpenes, cephalomannine” value [4, 20] was 3 mg/L. For the same compound, the “yield of taxane-type diterpenes, taxol” value [4, 20] was 12 mg/L, the yield of cells [4, 21] was 12 g/L and the “yield of taxane-type diterpenes, baccatin III” value [4, 21] was 2 mg/L. The “yield of taxane-type diterpenes, cephalomannine” value [4, 21] was 2 mg/L and the “yield of taxane-type diterpenes, taxol” value [4, 21] was 7 mg/L.

In the case of `OC[C@H]1O[C@H](OC[C@H]2O[C@@H]3O[C@H]4[C@H](O)[C@@H](O)[C@@H](O[C@H]5[C@H](O)[C@@H](O)[C@@H](O[C@H]6[C@H](O)[C@@H](O)[C@@H](O[C@H]7[C@H](O)[C@@H](O)[C@@H](O[C@H]8[C@H](O)[C@@H](O)[C@@H](O[C@H]9[C@H](O)[C@@H](O)[C@@H](O[C@H]2[C@H](O)[C@H]3O)O[C@@H]9CO)O[C@@H]8CO)O[C@@H]7CO)O[C@@H]6CO)O[C@@H]5CO)O[C@@H]4CO)[C@H](O)[C@@H](O)[C@@H]1O` [Example 17, 6-O-α-D-glucosyl-β-cyclodextrin], the “yield of baccatin III” value [1, 22] is reported as 53.0 mg/L, the yield of cephalomannine [1, 22] is reported as 11.1 mg/L and the “yield of cultured cells” value [1, 22] is reported as 17.5 g/L. For the same compound, the yield of taxol [1, 22] was 45.9 mg/L, the “yeild of cultured cells” value [2, 23] was 20.5 g/L and the “yield of baccatin III” value [2, 23] was 3.5 mg/L. It also gave a yield of cephalomannine [2, 23] of 1.3 mg/L and a yield of taxol [2, 23] of 8.2 mg/L.

In the case of `CCC1C=C(C(=O)NC2(C(=O)O)CC2CC)C2CCC(=O)C2C1` (centres unmarked) [Example 7, coronatine], the “yield of baccatin III” value [5, 24] is reported as 5.0 mg/L, the yield of cephalomannine [5, 24] is reported as 3.8 mg/L and the “yield of cultured cells” value [5, 24] is reported as 20.1 g/L. The yield of taxol [5, 24] was 9.6 mg/L, the “yield of baccatin III” value [5, 25] was 8.9 mg/L and the yield of cephalomannine [5, 25] was 10.2 mg/L. The “yield of cultured cells” value [5, 25] was 20.2 g/L, the yield of taxol [5, 25] was 15.2 mg/L and the “yield of baccatin III” value [5, 26] was 18.7 mg/L. For the same compound, the yield of cephalomannine [5, 26] was 12.3 mg/L, the “yield of cultured cells” value [5, 26] was 18.6 g/L and the yield of taxol [5, 26] was 30.1 mg/L. For the same compound, the “yield of baccatin III” value [5, 27] was 28.4 mg/L, the yield of cephalomannine [5, 27] was 11.4 mg/L and the “yield of cultured cells” value [5, 27] was 18.4 g/L. For the same compound, the yield of taxol [5, 27] was 60.0 mg/L, the “yield of baccatin III” value [5, 28] was 38.5 mg/L and the yield of cephalomannine [5, 28] was 8.8 mg/L. For the same compound, the “yield of cultured cells” value [5, 28] was 17.8 g/L, the yield of taxol [5, 28] was 49.4 mg/L and the “yield of baccatin III” value [5, 29] was 44.1 mg/L. For the same compound, the yield of cephalomannine [5, 29] was 7.9 mg/L, the “yield of cultured cells” value [5, 29] was 17.5 g/L and the yield of taxol [5, 29] was 58.0 mg/L. The “yield of baccatin III” value [5, 30] was 13.2 mg/L, the yield of cephalomannine [5, 30] was 6.5 mg/L and the “yield of cultured cells” value [5, 30] was 15.0 g/L. For the same compound, the yield of taxol [5, 30] was 23.1 mg/L, the “yield of baccatin III” value [6] was 26.5 mg/L and the yield of cephalomannine [6] was 15.1 mg/L. For the same compound, the “yield of cultured cells” value [6] was 18.6 g/L and the yield of taxol [6] was 65.2 mg/L.
